How the values were obtained:
BEL-7404 xenograft = conditions: BEL-7404 model, 5-Fu 20.0 mg/kg per two days iv
Method: In vivo anticancer efficacy of chiral platinum(II) complex 6 was evaluated using BEL-7404 and BEL-7402 xenograft mouse models. BEL-7404 and BEL-7402 cells were injected into nude mice. The mice were randomized into the control group, complex 6-treated group, and the positive control group (n = 6/group). When the volume of tumor was about 80 mm^3, complex 6 was given at a high (8 mg/kg) and low (4 mg/kg) dosage daily for 18 days, 5-FU (20 mg/kg every two days) and Cisplatin (2 mg/kg every two days) were used as a positive control in the BEL-7404 and BEL-7402 xenograft model, respectively.
To evaluate the vivo anticancer efficacy of complex 6, BEL-7404 and BEL-7402 xenograft mouse models (BALB/c nude mice, female for BEL-7404 model, 17–20 g, 6–7 weeks old; male for BEL-7402 model, 18-21 g, 6–7 weeks old) were used. Furthermore, animal used, maximum tolerated dose (MTD) analysis, acute toxicity studies and antitumor activity toward BEL-7404 and BEL-7402 models in vivo of complex 6, was similar to Chen reported.
H21T (3.5 pmol; 5’-G [T AG ] -3’), primer TS (18 pmol; tumor tissue were cut into about 1.5 mm3 small pieces, and […]
5’-[…]-3’), KCl (63 mM), then transplanted into the right flank of nude mice. When EGTA (1 mM), MgCl (1.5 mM), Tween-20 (0.005%), the average tumors reach a volume of about 80 mm3, the […]
primer NT (7.5 pmol; 5’-[…]-3’), mice were randomized into 4 groups (n=6), received the […]
TSNT internal control (0.01 amol; 5’-[…] following treatments: (a) control, received saline solvent; […]
-3’), primer (b) complex 6 at doses of 8.0 mg/kg daily (dissolve in […]
Cxext (22.5 pmol; 5’-[…] saline, iv); (c) complex 6 at doses of 4.0 mg/kg daily; […]
[…]-3’), Taq DNA polymerase (2.5 U), and (d) in BEL-7404 model, 5-fluorouracil (5-Fu) as positive telomerase (100 ng). Complexes or/and distilled water control at 20 mg/kg per two days (dissolve in saline, iv); was added ([…]). PCR was performed in an Eppendorf in BEL-7402 model, cisplatin as positive control at 2 mg/ Master cycler equipped with a hot lid and incubated for kg per two days (dissolve in saline, iv).
30.0 min at 30 °C, followed by 92 °C 30 s, 52 °C 30 s, The tumor volumes and body weight was monitored and 72°C 30 s for 30.0 cycles. After amplification, 8.0 every 3 days, The tumor volumes were estimated by […] loading buffer (5×TBE buffer, 0.2% xylene cyanol, measuring the two dimensions of the tumors using caliper and 0.2% bromophenol blue ) were added to the reaction. and calculated by the formula 1 [1, 6, 14]:
An […] of aliquot was loaded onto a nondenaturing V = (length × width2)/2(1) acrylamide gel (19:1, 16%) in 1×TBE buffer and resolved at 200.0 V for 1.0 h. Gels were fixed and then stained with On day 18, the mice were sacrificed, and tumor AgNO3 [8–11]. tissue were dissected out and weighted, tumor growth inhibition rate calculated using formulas 2 and 3 [1, 6,
In order to verify whether complexes 4–6 can TGI (%) = (ΔVc − ΔVt)/ΔVc×100%(2) directly regulate c-myc promoter (Pu27) and the IR(%) = (Wc − Wt)/Wc×100%(3) expression of hTRET in BEL-7404 cells, consequently Where ΔVt = tumor volumefinal −tumor volumeinitial inhibiting the telomerase function, we constructed EGFP for compound treated group, ΔVc=tumor volumefinal − and c-myc gene vectors according to those illustrated tumor volumeinitial for vehicle control group; Wt and Wc in Chalfie, Chen and He previous work. The detailed mean the average tumor weight of complex-treated and procedures for the construct of gene (c-myc and EGFP vehicle controlled group respectively. genes) vectors, and the method of transfection assays REFERENCES have been reported by Chalfie, Chen and He [1, 6, 9, 12,

A549 cells = test: Cytotoxicity assay (MTT assay); type: cell-based, human; conditions: A549, 100 μM
BEL-7404 cells = test: Cytotoxicity assay (MTT assay); type: cell-based, human; conditions: BEL-7404, 100 μM
HeLa cells = test: Cytotoxicity assay (MTT assay); type: cell-based, human; conditions: 100 μM
BEL-7402 cells = test: Cytotoxicity assay (MTT assay); type: cell-based, human; conditions: BEL-7402, 100 μM
Hep-G2 cells = test: Cytotoxicity assay (MTT assay); type: cell-based, human; conditions: Hep-G2, 100 μM
MGC80-3 cells = test: Cytotoxicity assay (MTT assay); type: cell-based, human; conditions: MGC80-3, 100 μM

| Compound | Tumor volume (start) (BEL-7404 xenograft) [mm3] | Average tumor weight (mean ± SD g) (BEL-7404 xenograft; day 18) [g] | Tumor volume (end) (BEL-7404 xenograft; day 18) [mm3] | Inhibitory rates (%) (A549 cells; 24 h) | Inhibitory rates (%) (A549 cells; 48 h) | Inhibitory rates (%) (BEL-7404 cells; 24 h) | Inhibitory rates (%) (BEL-7404 cells; 48 h) | Inhibitory rates (%) (HeLa cells; 24 h) | Inhibitory rates (%) (HeLa cells; 48 h) | Inhibitory rates (%) (BEL-7402 cells; 24 h) | Inhibitory rates (%) (BEL-7402 cells; 48 h) | Inhibitory rates (%) (Hep-G2 cells; 24 h) | Inhibitory rates (%) (Hep-G2 cells; 48 h) | Inhibitory rates (%) (MGC80-3 cells; 24 h) | Inhibitory rates (%) (MGC80-3 cells; 48 h) |
| --- | --- | --- | --- | --- | --- | --- | --- | --- | --- | --- | --- | --- | --- | --- | --- |
| O=c1[nH]cc(F)c(=O)[nH]1 [5-FU, 5-fluorouracil, reference compound] | 75.95±25.57 | 0.47 ± 0.20 | 576.17±297.34 | – | – | – | – | – | – | – | – | – | – | – | – |
| C[S](C)(=O)[Pt]([Cl])([Cl])[S](C)(C)=O [cis-Pt(DMSO)2Cl2] | – | – | – | 15.1 ± 1.7 | 22.3 ± 0.5 | 5.3 ± 1.5 | 8.0 ± 0.7 | 19.8 ± 0.7 | 25.4 ± 1.2 | 8.6 ± 2.4 | 12.3 ± 0.4 | 10.1 ± 0.4 | 13.8 ± 0.7 | 10.2 ± 1.3 | 30.4 ± 0.8 |
